Measured values reported in paper PMC13316043, “Structural basis of NSD2 degradation via targeted recruitment of SCF-FBXO22” (Nature Communications, 2026).

How the values were obtained:
[1] = target: T1, NSD2 (long and short forms) (Homo sapiens, UniProt O96028); assay: Western blot of NSD2 in HEK293T cells; format: cell-based; details: 10 µM, 6 hrs, vs DMSO
T1 sequence (O96028 211-350 limits assumed): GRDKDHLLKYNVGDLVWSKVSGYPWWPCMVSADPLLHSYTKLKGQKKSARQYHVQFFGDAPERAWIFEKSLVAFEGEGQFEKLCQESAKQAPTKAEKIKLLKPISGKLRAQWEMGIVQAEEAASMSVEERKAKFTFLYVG
Description: HEK293T and U2OS were obtained from ATCC and cultured in high-glucose-containing Dulbecco’s Modified Eagle’s Medium (DMEM; Gibco; cat. #11995) supplemented with 10% fetal bovine serum (VWR) and 1% penicillin/streptomycin (Gibco). Cells were treated with either UNC10415667, UNC12149, UNC12567, hemin (Sigma; cat. #H9039), or DMSO control for the indicated times and analyzed by western blot using standard procedures. Briefly, cells were lysed on ice for 15 min in NETN lysis buffer (20 mM Tris pH 8.0, 100 mM NaCl, 0.5 mM EDTA, 0.5% NP40) supplemented with 10 µg/mL aprotinin, 10 µg/mL leupeptin, 10 µg/mL pepstatin A, 1 mM sodium orthovanadate, 1 mM sodium fluoride, and 1 mM AEBSF (4-[two aminoethyl] benzenesulfonyl fluoride). Cell lysates were centrifuged at 20,000×g in a benchtop microcentrifuge at 4 °C for 10 min. Protein concentration was determined by Bradford assay (Bio-Rad; cat. #5000006). Protein concentration was normalized using Laemmli buffer. Samples were heated for 5 min at 95°C in a dry water-bath. Samples were separated on TGX stain free gels (Bio-Rad) transferred to nitrocellulose membrane and blocked in 5% non-fat dry milk (Biorad; cat. #1706404) diluted in 1x TBS-T (137 mM NaCl, 2.7 mM KCl, 25 mM Tris pH 7.6, 1% Tween-20). Primary antibody incubations (Anti-NSD2 (Abcam; Cat# ab75359; Lot# 1093214-1; 1:1000 dilution), Anti-BACH1 (Fortis Life Sciences; Cat# A303-805A; Lot# 1; 1:1000 dilution), and Anti-GAPDH (Santa Cruz Biotechnology; Cat# sc-47724; Lot# C1023; 1:1000 dilution)) were performed overnight at 4 °C. Secondary antibodies (Peroxidase AffiniPure Goat Anti-Rabbit IgG (H + L) (Jackson Immuno; Cat# 111-035-003; 1:5000 dilution) and Peroxidase AffiniPure Goat Anti-Mouse IgG (H + L) (Jackson Immuno; Cat# 115-035-003; 1:5000 dilution)) were incubated for 1 h at room temperature. Blots were developed by chemiluminescence using Pierce ECL (Thermo Fisher Scientific; cat. #32106).

[2] = tested on: FBXO22-NSD2 PWWP1 ternary complex; assay: Size-exclusion chromatography to monitor ternary complex formation; format: binding, human
Description: Formation of the SCF^FBXO22-UNC10088-NSD2 PWWP1 and SCF^FBXO22-UNC10415667-NSD2 PWWP1 ternary complexes was performed by incubating SKP1-FBXO22, CUL1-RBX1, NSD2 PWWP1, and UNC10088 or UNC10415667 at a 1:1:1:1 molar ratio for 4 h on ice. The SCF^FBXO22-UNC10088-NSD2 PWWP1-BACH1 BTB ternary complex was formed by incubating SKP1-FBXO22, CUL1-RBX1, NSD2 PWWP1, UNC10088, and BACH1 BTB at a 1:1:1:1:1.5 molar ratio for 1 h on ice. The incubated sample was loaded onto a Superdex 200 Increase SD200 column (Cytiva), equilibrated with 20 mM HEPES pH 8, 200 mM NaCl, 1 mM DTT, for size-exclusion chromatography, and fractions containing all subunits of the SCF^FBXO22-Degrader-NSD2 PWWP1 complex were pooled and concentrated. The SCF^FBXO22-UNC10088-NSD2 PWWP1, SCF^FBXO22-UNC10415667-NSD2 PWWP1, and SCF^FBXO22-UNC10088-NSD2 PWWP1-BACH1 BTB complexes were concentrated to 33 µM, 10.9 µM, and 4.1 µM, respectively, and flash frozen. […] In contrast, only the PWWP1 and BTB domains of NSD2 and BACH1, respectively, were used.
FBXO22 WT and variants were incubated on ice with NSD2 PWWP1 and either UNC10088 or UNC10415667 at 5 µM. After 1 h, the samples were centrifuged at 16,060 x g for 10 min at 4 °C. Each sample was examined for C326- and compound-dependent complex formation by comparing the SEC chromatograms and Coomassie-stained SDS-PAGE gels. […] These experiments were performed using a Superdex 200 Increase SD200 column (Cytiva) and 20 mM HEPES pH 8, 200 mM NaCl, 1 mM DTT.

Structure (SMILES)	NSD2 levels by immunoblot [1]	ternary complex formation between FBXO22 and NSD2 PWWP1 by SEC [2]
O=Cc1ccc(C(=O)N2CCc3cc(NC(=O)c4ccc(CN(C(=O)c5ccc6c(c5)OCC(=O)N6)C5CC5)cc4)ccc3C2)cc1 [UNC10415667]	completely degraded	stable complex
O=C1COc2cc(C(=O)N(Cc3ccc(C(=O)Nc4ccc5c(c4)CCN(C(=O)CCCCC(O)S(=O)(=O)O)C5)cc3)C3CC3)ccc2N1 (stereo not shown) [UNC10088]	degradation of NSD2	co-migrated together
